Values joined by “and” are separate entries in the source; they are usually repeats but may differ in a detail not shown here. Identical values can stand only once.
Experiments:
Details in all cases: incubation time: 72 h
MDA-MB-468 [1] = test: drug sensitivity score (DSS), CellTiter-Blue viability (DSS (AUC-based score)); higher = stronger viability inhibition; extreme values may be limits of the assay
Experimental: (§1)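 DSRT with the CellTiter-Blue (resazurin reduction) viability readout, fluorescence 560/590 nm, 72 h incubation. Plates were normalised to DMSO and benzethonium chloride controls. DSS is computed from the area under the fitted dose-response curve (5 or 9 concentrations).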

CAL-120 = test: as above
Experimental: as §1

HCC1937 = test: as above
Experimental: as §1

CAL-85-1 [2] = test: as above
Experimental: as §1

SK-BR-3 = test: as above
Experimental: as §1

HCC1143 [3] = test: as above
Experimental: as §1

BT-549 = test: as above
Experimental: as §1

DU-4475 = test: as above
Experimental: as §1

Hs578T = test: as above
Experimental: as §1

HDQ-P1 = test: as above
Experimental: as §1

MFM-223 = test: as above
Experimental: as §1

MDA-MB-468 [4] = test: normalised viability (% of control), CellTiter-Blue; higher = more viable cells (about 100 = DMSO control)
Outline: (§2)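 384-well plates were pre-loaded with compound in 5 µl medium before 20 µl of breast cancer cell suspension was seeded. Following 72 h incubation, 2.5 µl CellTiter-Blue reagent was added for 2 h at 37 °C. Fluorescence was read at 560/590 nm and plates were normalised to vehicle (100) and a positive kill control (0), checked by Z'-factor. Normalised viability is reported at a single listed concentration of the series.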

CAL-85-1 [5] = test: as above
Outline: as §2

HCC1143 [6] = test: as above
Outline: as §2

MDA-MB-453 [7] = test: as above
Outline: as §2

MDA-MB-231 [8] = test: as above
Outline: as §2

CAL-148 = test: drug sensitivity score (DSS), CellTiter-Blue viability (DSS (AUC-based score)); higher = stronger viability inhibition; extreme values may be limits of the assay
Experimental: as §1

HCC1599 = test: as above
Experimental: as §1

MDA-MB-436 = test: as above
Experimental: as §1

CAL-51 = test: as above
Experimental: as §1

BT-474 = test: as above
Experimental: as §1

MDA-MB-453 [9] = test: as above
Experimental: as §1

MDA-MB-231 [10] = test: as above
Experimental: as §1

Nc1ncn([C@H]2C[C@H](O)[C@@H](CO)O2)c(=O)n1 [Decitabine]
Details	drug sensitivity score
BT-549	4.59 and 2.2
CAL-85-1 [2]	0
CAL-120	0
DU-4475	4.16 and 2.07
HCC1143 [3]	5.09 and 8.28
HCC1937	3.95 and 4.59
HDQ-P1	0
Hs578T	0
MDA-MB-468 [1]	21.5 and 21.6
MFM-223	0
SK-BR-3	2.77 and 1.44

Details	normalised viability
CAL-85-1 [5], 3 nM	91.9% and 103%
CAL-85-1 [5], 30 nM	83.4% and 91.2%
CAL-85-1 [5], 100 nM	93.6% and 93.9%
HCC1143 [6], 10 nM	82.7% and 80.8%
HCC1143 [6], 1000 nM	68.5% and 78.8%
HCC1143 [6], 10000 nM	56% and 59.8%
MDA-MB-231 [8], 10 nM	86.9% and 92.8%
MDA-MB-231 [8], 1000 nM	74% and 92.3%
MDA-MB-231 [8], 10000 nM	69.8% and 71.6%
MDA-MB-453 [7], 3 nM	107% and 118%
MDA-MB-468 [4], 10 nM	109% and 102%
MDA-MB-468 [4], 1000 nM	28.7% and 29.4%
MDA-MB-468 [4], 10000 nM	27% and 29.1%

Nc1ccccc1NC(=O)c1ccc(CNC(=O)OCc2cccnc2)cc1 [Entinostat]
Details	drug sensitivity score
BT-474	3.64
BT-549	0
CAL-51	1.7
CAL-85-1 [2]	5.41
CAL-120	8.06
CAL-148	5.16
DU-4475	2.81
HCC1143 [3]	2.98
HCC1599	4.98
HCC1937	4.61
HDQ-P1	0
Hs578T	2.77
MDA-MB-231 [10]	4.99
MDA-MB-436	0
MDA-MB-453 [9]	5.77
MDA-MB-468 [1]	7.4
MFM-223	5.32
SK-BR-3	12.4

normalised viability [%]
Details	3 nM	10 nM	30 nM	100 nM	1000 nM	10000 nM
CAL-85-1 [5]	98.1	–	100	99.6	–	–
HCC1143 [6]	–	84.5	–	–	89.6	31.2
MDA-MB-231 [8]	–	99.2	–	–	78.7	37.7
MDA-MB-453 [7]	132	–	130	110	–	–
MDA-MB-468 [4]	–	102	–	–	79.8	22.9

O=C(/C=C/c1cccnc1)NCCCCC1CCN(C(=O)c2ccccc2)CC1 [FK-866]
Details	drug sensitivity score
BT-474	9.11
BT-549	23.9
CAL-51	14.5
CAL-85-1 [2]	9.18
CAL-120	19.4
CAL-148	9.58
DU-4475	19.8
HCC1143 [3]	22.2
HCC1599	18.7
HCC1937	7.6
HDQ-P1	9.7
Hs578T	25.5
MDA-MB-231 [10]	15.6
MDA-MB-436	22.3
MDA-MB-453 [9]	27.2
MDA-MB-468 [1]	30.1
MFM-223	23.9
SK-BR-3	0

normalised viability [%]
Details	0.3 nM	1 nM	3 nM	10 nM	100 nM	1000 nM
CAL-85-1 [5]	103	–	97.7	91.6	–	–
HCC1143 [6]	–	85.6	–	–	24.4	21.3
MDA-MB-231 [8]	–	106	–	–	27.9	23.2
MDA-MB-453 [7]	111	–	31.7	22.3	–	–
MDA-MB-468 [4]	–	91.9	–	–	1.9	1.73

Nc1nc(F)nc2c1ncn2[C@@H]1O[C@H](CO)[C@@H](O)[C@@H]1O [Fludarabine]
Details	drug sensitivity score
BT-474	0
BT-549	0.397
CAL-51	0
CAL-85-1 [2]	0
CAL-120	0
CAL-148	0
DU-4475	0
HCC1143 [3]	0
HCC1599	0
HCC1937	4.57
HDQ-P1	0
Hs578T	0
MDA-MB-231 [10]	0
MDA-MB-436	0
MDA-MB-453 [9]	0
MDA-MB-468 [1]	0
MFM-223	0
SK-BR-3	1.12

normalised viability [%]
Details	3 nM	10 nM	30 nM	100 nM	1000 nM	10000 nM
CAL-85-1 [5]	88	–	87.2	92.8	–	–
HCC1143 [6]	–	75.8	–	–	80	55.9
MDA-MB-231 [8]	–	90.9	–	–	89.9	81.1
MDA-MB-453 [7]	113	–	112	103	–	–
MDA-MB-468 [4]	–	98.8	–	–	112	98.9

O=C(Cc1ccc(-c2ccc(OCCN3CCOCC3)cc2)cn1)NCc1ccccc1 [KX2-391]
Details	drug sensitivity score
BT-474	11.2
BT-549	24.1
CAL-51	24.2
CAL-85-1 [2]	19.6
CAL-120	23.4
CAL-148	22.6
DU-4475	25.9
HCC1143 [3]	23.1
HCC1599	7.95
HCC1937	24.2
HDQ-P1	16
Hs578T	25.9
MDA-MB-231 [10]	24.2
MDA-MB-436	14.6
MDA-MB-453 [9]	21.5
MDA-MB-468 [1]	16.6
MFM-223	17.9
SK-BR-3	25

normalised viability [%]
Details	3 nM	10 nM	30 nM	100 nM	1000 nM	10000 nM
CAL-85-1 [5]	92.5	–	65.1	34.2	–	–
HCC1143 [6]	–	79.3	–	–	32.3	39.5
MDA-MB-231 [8]	–	98.1	–	–	18.1	16.3
MDA-MB-453 [7]	114	–	72.6	25	–	–
MDA-MB-468 [4]	–	104	–	–	38.9	51.8

N#Cc1ccc(C(c2ccc(C#N)cc2)n2cncn2)cc1 [Letrozole]
Details	drug sensitivity score
BT-474	0
BT-549	0
CAL-51	0
CAL-85-1 [2]	0
CAL-120	0
CAL-148	0
DU-4475	0
HCC1143 [3]	0
HCC1599	3.7
HCC1937	1.74
HDQ-P1	0
Hs578T	0
MDA-MB-231 [10]	0
MDA-MB-436	0
MDA-MB-453 [9]	0
MDA-MB-468 [1]	0
MFM-223	0
SK-BR-3	0

normalised viability [%]
Details	3 nM	10 nM	30 nM	100 nM	1000 nM	10000 nM
CAL-85-1 [5]	86.9	–	85	87.1	–	–
HCC1143 [6]	–	85.4	–	–	90.7	78.4
MDA-MB-231 [8]	–	86.3	–	–	87.8	95.5
MDA-MB-453 [7]	105	–	76.8	93.1	–	–
MDA-MB-468 [4]	–	101	–	–	115	92.7

CCN(CC)CCCC(C)Nc1c2ccc(Cl)cc2nc2ccc(OC)cc12 (stereo not given) [Mepacrine]
Details	drug sensitivity score
BT-474	4.38 and 1.69
BT-549	2.79 and 5
CAL-51	3.49 and 2.1
CAL-85-1 [2]	4.8 and 2.06
CAL-120	6.95 and 4.06
CAL-148	5.43 and 4.13
DU-4475	4.6 and 3.08
HCC1143 [3]	3.86 and 1.45
HCC1599	5.6 and 4.64
HCC1937	9 and 9.95
HDQ-P1	6.58 and 6.72
Hs578T	2.46 and 1.85
MDA-MB-231 [10]	8.94 and 9.12
MDA-MB-436	6.69 and 2.28
MDA-MB-453 [9]	6.26 and 3.66
MFM-223	2.66 and 2.79
SK-BR-3	5.2 and 2.74

normalised viability [%]
Details	CAL-85-1 [5]	HCC1143 [6]	MDA-MB-231 [8]	MDA-MB-453 [7]	MDA-MB-468 [4]
0.297 nM	114	–	–	106	–
0.99 nM	–	123	89.4	–	108
2.97 nM	95.7	–	–	107	–
3 nM	94.3	–	–	114	–
9.9 nM	98.9	–	–	100	–
10 nM	–	93.5	102	–	104
30 nM	88.1	–	–	96.7	–
99 nM	–	114	81.4	–	106
100 nM	105	–	–	102	–
990 nM	–	45	8.45	–	43.4
1000 nM	–	96.1	65	–	94.7
10000 nM	–	35.5	7.28	–	5.97

C[C@H]1C[C@@H]2[C@H]([C@@H](O)C[C@@]3(C)[C@H]2CC[C@]3(O)C(=O)CO)[C@@]2(C)C=CC(=O)C=C12 [Methylprednisolone]
Details	drug sensitivity score
BT-474	0
BT-549	3.25
CAL-51	0
CAL-85-1 [2]	0
CAL-120	0
CAL-148	0
DU-4475	0
HCC1143 [3]	0
HCC1599	0
HCC1937	0
HDQ-P1	0
Hs578T	0
MDA-MB-231 [10]	0
MDA-MB-436	0
MDA-MB-453 [9]	6.93
MDA-MB-468 [1]	0
MFM-223	0
SK-BR-3	0

normalised viability [%]
Details	3 nM	10 nM	30 nM	100 nM	1000 nM	10000 nM
CAL-85-1 [5]	87.6	–	102	109	–	–
HCC1143 [6]	–	89.8	–	–	111	92.5
MDA-MB-231 [8]	–	104	–	–	114	119
MDA-MB-453 [7]	112	–	85.6	75.3	–	–
MDA-MB-468 [4]	–	92.7	–	–	117	88.2

O=C(O)C(=O)O.[NH-][C@@H]1CCCC[C@H]1[NH-].[Pt+2] [Oxaliplatin]
Details	drug sensitivity score
BT-474	0
BT-549	4
CAL-51	1.13
CAL-85-1 [2]	0
CAL-120	0
CAL-148	2.79
DU-4475	1.32
HCC1143 [3]	1.68
HCC1599	2.34
HCC1937	3.82
HDQ-P1	0
Hs578T	0
MDA-MB-231 [10]	0
MDA-MB-436	2.6
MDA-MB-453 [9]	1.94
MDA-MB-468 [1]	2.32
MFM-223	0
SK-BR-3	0.975

normalised viability [%]
Details	3 nM	10 nM	30 nM	100 nM	1000 nM	10000 nM
CAL-85-1 [5]	99	–	83.2	87.3	–	–
HCC1143 [6]	–	82.2	–	–	94.2	44
MDA-MB-231 [8]	–	92.2	–	–	83.5	48.9
MDA-MB-453 [7]	119	–	101	113	–	–
MDA-MB-468 [4]	–	98.7	–	–	97.7	56.5

Nc1nc2[nH]cc(CCc3ccc(C(=O)N[C@@H](CCC(=O)O)C(=O)O)cc3)c2c(=O)[nH]1 [Pemetrexed]
Details	drug sensitivity score
BT-474	0
BT-549	0
CAL-51	0
CAL-85-1 [2]	5.19
CAL-120	1.61
CAL-148	0
DU-4475	0
HCC1143 [3]	3.58
HCC1599	0
HCC1937	0
HDQ-P1	0
Hs578T	0
MDA-MB-231 [10]	0
MDA-MB-436	0
MDA-MB-453 [9]	0
MDA-MB-468 [1]	0
MFM-223	0
SK-BR-3	9.22

normalised viability [%]
Details	3 nM	10 nM	30 nM	100 nM	1000 nM	10000 nM
CAL-85-1 [5]	99.6	–	91	101	–	–
HCC1143 [6]	–	90.8	–	–	77.4	72.2
MDA-MB-231 [8]	–	97.5	–	–	98.9	92.4
MDA-MB-453 [7]	128	–	96	114	–	–
MDA-MB-468 [4]	–	97.7	–	–	71.9	99.5

Source: the supplement of paper PMC4862054
